In the assay the target is ULK1 (Homo sapiens (Human), UniProt O75385). Nature of the assay: ULK1 inhibition assay (Table 1). Format: biochemical. The following applies: * = tested as a mixture of regioisomers.

These results are taken from patent US10266549B2, “ULK1 inhibitors and methods using same” (SALK INSTITUTE FOR BIOLOGICAL STUDIES, priority 2014, dated 2019).

The structures appear in SMILES notation. pIC50: −log10 of the molar value.

Chain of ULK1 (O75385 whole entry, species assumed): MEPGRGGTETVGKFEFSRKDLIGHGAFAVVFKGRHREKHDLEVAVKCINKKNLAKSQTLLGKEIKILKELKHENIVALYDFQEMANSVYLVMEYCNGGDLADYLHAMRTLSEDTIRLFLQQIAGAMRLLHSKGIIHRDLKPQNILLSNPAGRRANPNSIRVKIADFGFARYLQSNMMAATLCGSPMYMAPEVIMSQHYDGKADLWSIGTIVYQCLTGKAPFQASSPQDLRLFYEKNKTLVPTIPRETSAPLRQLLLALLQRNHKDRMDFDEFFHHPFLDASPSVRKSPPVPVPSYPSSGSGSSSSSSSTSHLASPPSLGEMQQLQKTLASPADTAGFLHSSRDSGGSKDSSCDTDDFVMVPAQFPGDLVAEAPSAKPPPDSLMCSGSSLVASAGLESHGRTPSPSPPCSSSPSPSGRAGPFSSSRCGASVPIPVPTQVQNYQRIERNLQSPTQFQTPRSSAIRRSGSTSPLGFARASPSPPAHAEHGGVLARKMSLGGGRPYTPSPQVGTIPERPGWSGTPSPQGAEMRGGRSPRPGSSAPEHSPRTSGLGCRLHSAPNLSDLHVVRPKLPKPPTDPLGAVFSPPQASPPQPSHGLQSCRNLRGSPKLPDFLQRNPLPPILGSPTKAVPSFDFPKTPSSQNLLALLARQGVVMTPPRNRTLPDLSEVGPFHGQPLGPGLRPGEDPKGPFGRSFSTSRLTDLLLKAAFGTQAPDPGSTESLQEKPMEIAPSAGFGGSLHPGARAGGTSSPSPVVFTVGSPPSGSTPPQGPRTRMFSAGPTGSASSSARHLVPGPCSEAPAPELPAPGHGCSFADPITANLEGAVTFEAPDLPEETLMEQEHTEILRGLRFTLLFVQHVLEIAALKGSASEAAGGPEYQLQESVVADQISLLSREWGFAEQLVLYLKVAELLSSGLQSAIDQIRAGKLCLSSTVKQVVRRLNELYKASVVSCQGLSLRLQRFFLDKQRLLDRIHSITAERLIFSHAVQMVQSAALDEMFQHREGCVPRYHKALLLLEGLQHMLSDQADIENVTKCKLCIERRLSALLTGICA

As for `FC(F)(F)c1cnc(Nc2cnc3[nH]ccc3c2)nc1NC1CCC1` [161a, N^4-cyclobutyl-N^2-(1H-pyrrolo[2,3-b]pyridin-5-yl)-5-(trifluoromethyl)pyrimidine-2,4-diamine], the pIC50 (usually −log10 of the IC50, conventionally taken in molar units) was greater than 6.70.
As for `FC(F)(F)c1cnc(NC2CCC2)nc1Nc1cnc2[nH]ccc2c1` [161b, N^2-cyclobutyl-N^4-(1H-pyrrolo[2,3-b]pyridin-5-yl)-5-(trifluoromethyl)pyrimidine-2,4-diamine], the figure is greater than 6.70.
As for `FC(F)(F)c1cnc(NC2Cc3ccccc3C2)nc1Nc1ccc2c(c1)OCO2` [163a, N^4-(benzo[d][1,3]dioxol-5-yl)-N^2-(2,3-dihydro-1H-inden-2-yl)-5-(trifluoromethyl)pyrimidine-2,4-diamine], the figure is less than 5.70.
The result for `FC(F)(F)c1cnc(Nc2ccc3c(c2)OCO3)nc1NC1Cc2ccccc2C1` [163b, N^2-(benzo [d] [1,3]dioxol-5-yl)-N^4-(2,3-dihydro-1H-inden-2-yl)-5-(trifluoromethyl)pyrimidine-2,4-diamine] reads less than 5.70.
With `FC(F)(F)c1cnc(N2CCCC2)nc1Nc1ccc2c(c1)OCO2` [164a, N-(benzo[d][1,3]dioxol-5-yl)-2-(pyrrolidin-1-yl)-5-(trifluoromethyl)pyrimidin-4-amine], the pIC50 is less than 5.70.
As for `FC(F)(F)c1cnc(Nc2ccc3c(c2)OCO3)nc1N1CCCC1` [164b, N-(benzo[d][1,3]dioxol-5-yl)-4-(pyrrolidin-1-yl)-5-(trifluoromethyl)pyrimidin-2-amine], the figure is 5.70 to 6.70; as for `Nc1ncc(C(F)(F)F)c(Nc2ccc3c(c2)OCO3)n1` [165a, N^4-(benzo[d][1,3]dioxol-5-yl)-5-(trifluoromethyl)pyrimidine-2,4-diamine], 5.70 to 6.70.
In the case of `Nc1nc(Nc2ccc3c(c2)OCO3)ncc1C(F)(F)F` [165b, N^2-(benzo[d][1,3]dioxol-5-yl)-5-(trifluoromethyl)pyrimidine-2,4-diamine], the pIC50 was 5.70 to 6.70.
The result for `FC(F)(F)c1cnc(N2CCC2)nc1Nc1ccc2c(c1)OCO2` [166a, 2-(azetidin-1-yl)-N-(benzo[d][1,3]dioxol-5-yl)-5-(trifluoromethyl)pyrimidin-4-amine] reads less than 5.70.
As for `FC(F)(F)c1cnc(Nc2ccc3c(c2)OCO3)nc1N1CCC1` [166b, 4-(azetidin-1-yl)-N-(benzo[d][1,3]dioxol-5-yl)-5-(trifluoromethyl)pyrimidin-2-amine], the figure is greater than 6.70.
As for `FC(F)(F)c1cnc(NCC2CC2)nc1Nc1ccc2c(c1)OCO2` [167a, N^4-(benzo[d][1,3]dioxol-5-yl)-N^2-(cyclopropylmethyl)-5-(trifluoromethyl)pyrimidine-2,4-diamine], the figure is greater than 6.70; as for `FC(F)(F)c1cnc(Nc2ccc3c(c2)OCO3)nc1NCC1CC1` [167b, N^2-(benzo[d][1,3]dioxol-5-yl)-N^4-(cyclopropylmethyl)-5-(trifluoromethyl)pyrimidine-2,4-diamine], greater than 6.70; as for `FC(F)(F)c1cnc(NC2CCC2)nc1Nc1ccc2c(c1)OCO2` [168a, N^4-(benzo[d][1,3]dioxol-5-yl)-N^2-cyclobutyl-5-(trifluoromethyl)pyrimidine-2,4-diamine], greater than 6.70.
For the compound `FC(F)(F)c1cnc(Nc2ccc3c(c2)OCO3)nc1NC1CCC1` [168b, N^2-(benzo[d][1,3]dioxol-5-yl)-N^4-cyclobutyl-5-(trifluoromethyl)pyrimidine-2,4-diamine], the pIC50 was 5.70 to 6.70.
As for `FC(F)(F)c1cnc(NC2CCC2)nc1NC1CCC1` [168c, N^2,N^4-dicyclobutyl-5-(trifluoromethyl) pyrimidine-2,4-diamine], the figure is 5.70 to 6.70.
The result for `COc1cc(Nc2ncc(Br)c(N(C)C(=O)c3ccccc3O)n2)cc(OC)c1OC` [171b, N-(5-bromo-2-((3,4,5-trimethoxyphenyl)amino)pyrimidin-4-yl)-2-hydroxy-N-methylbenzamide] reads greater than 6.70.
Turning to `O=C1CCc2cc(Nc3ncc(C(F)(F)F)c(Nc4ccc5c(c4)OC(F)(F)O5)n3)ccc2N1` [178a, 6-((4-((2,2-difluorobenzo[d][1,3]dioxol-5-yl)amino)-5-(trifluoromethyl)pyrimidin-2-yl)amino)-3,4-dihydroquinolin-2(1H)-one], the pIC50 was greater than 6.70.
Consider `O=C1CCc2cc(Nc3nc(Nc4ccc5c(c4)OC(F)(F)O5)ncc3C(F)(F)F)ccc2N1` [178b, 6-((2-((2,2-difluorobenzo[d][1,3]dioxol-5-yl)amino)-5-(trifluoromethyl)pyrimidin-4-yl)amino)-3,4-dihydroquinolin-2(1H)-one], for which the pIC50 is greater than 6.70.
As for `O=C1CCc2cc(Nc3ncc(C(F)(F)F)c(OC4Cc5ccccc5C4)n3)ccc2N1` [180a, 6-((4-((2,3-dihydro-1H-inden-2-yl)oxy)-5-(trifluoromethyl)pyrimidin-2-yl)amino)-3,4-dihydroquinolin-2(1H)-one], the figure is greater than 6.70.
The result for `O=C1CCc2cc(Nc3nc(OC4Cc5ccccc5C4)ncc3C(F)(F)F)ccc2N1` [180b, 6-((2-((2,3-dihydro-1H-inden-2-yl)oxy)-5-(trifluoromethyl)pyrimidin-4-yl)amino)-3,4-dihydroquinolin-2(1H)-one] reads less than 5.70; that for `FC(F)(F)c1cnc(Nc2cnc3[nH]ccc3c2)nc1Nc1ccccc1` [181a, N4-phenyl-N2-(1H-pyrrolo[2,3-b]pyridin-5-yl)-5-(trifluoromethyl)pyrimidine-2,4-diamine], greater than 6.70.
As for `Nc1ncc(C(F)(F)F)c(Nc2cnc3[nH]ccc3c2)n1` [181b, N4-(1H-pyrrolo[2,3-b]pyridin-5-yl)-5-(trifluoromethyl)pyrimidine-2,4-diamine], the figure is 5.70 to 6.70; as for `CNc1nc(Nc2cnc3[nH]ccc3c2)ncc1C(F)(F)F` [182a, N4-methyl-N2-(1H-pyrrolo[2,3-b]pyridin-5-yl)-5-(trifluoromethyl)pyrimidine-2,4-diamine], greater than 6.70.
For `CNc1ncc(C(F)(F)F)c(Nc2cnc3[nH]ccc3c2)n1` [182b, N2-methyl-N4-(1H-pyrrolo[2,3-b]pyridin-5-yl)-5-(trifluoromethyl)pyrimidine-2,4-diamine], the pIC50 is 5.70 to 6.70.
Take `COc1cc(Nc2nc(-n3nnc4ccccc43)ncc2Br)cc(O)c1OC` [Example 331b]: the pIC50 is 5.70 to 6.70.
The result for `CNC(=O)c1ccccc1Nc1nc(Nc2ccc(N3CCOCC3)cc2OC)ncc1Cl` [compound 12, 2-(5-Chloro-2-(2-methoxy-4-morpholinophenylamino)pyrimidin-4-ylamino)-N-methylbenzamide] reads greater than 6.70.
As for `CNC(=O)c1ccccc1Nc1nc(Nc2ccc(N3CCOCC3)cc2OC)ncc1Br` [compound 13, 2-(5-Bromo-2-(2-methoxy-4-morpholinophenylamino)pyrimidin-4-ylamino)-N-methylbenzamide], the figure is 5.70 to 6.70; as for `CNC(=O)c1ccccc1Nc1nc(Nc2cc(OC)c(OC)c(OC)c2)ncc1Cl` [compound 15, 2-(5-Chloro-2-(3,4,5-trimethoxyphenylamino)pyrimidin-4-ylamino)-N-methylbenzamide], greater than 6.70.
The result for `CNC(=O)c1ccccc1Nc1nc(Nc2cc(OC)ccc2C)ncc1Cl` [compound 16, 2-(5-Chloro-2-(5-methoxy-2-methylphenylamino)pyrimidin-4-ylamino)-N-methylbenzamide] reads greater than 6.70; that for `CNC(=O)c1ccccc1Nc1nc(Nc2cc(OC)ccc2C)ncc1Br` [compound 17, 2-(5-Bromo-2-(5-methoxy-2-methylphenylamino)pyrimidin-4-ylamino)-N-methylbenzamide], greater than 6.70.
Take `CNC(=O)c1ccccc1Nc1nc(Nc2ccc3[nH]ccc3c2)ncc1Cl` [compound 18, 2-(2-(1H-indol-5-ylamino)-5-chloropyrimidin-4-ylamino)-N-methylbenzamide]: the pIC50 was 5.70 to 6.70.
The result for `CNC(=O)c1ccccc1Nc1nc(Nc2ccc3c(c2)CCC(=O)N3)ncc1Cl` [compound 19, 2-(5-Chloro-2-(2-oxo-1,2,3,4-tetrahydroquinolin-6-ylamino)pyrimidin-4-ylamino)-N-methylbenzamide] reads greater than 6.70; that for `CNC(=O)c1ccccc1Nc1nc(Nc2ccc3c(c2)CCC(=O)N3)ncc1Br` [compound 20, 2-((5-Bromo-2-((2-oxo-1,2,3,4-tetrahydroquinolin-6-yl)amino)pyrimidin-4-yl)amino)-N-methylbenzamide], greater than 6.70; that for `CNC(=O)c1ccccc1Nc1nc(Nc2ccc3c(c2)CC(=O)N3)ncc1Cl` [compound 21, 2-(5-Chloro-2-(2-oxoindolin-5-ylamino)pyrimidin-4-ylamino)-N-methylbenzamide], greater than 6.70.
As for `COc1cc(Nc2ncc(Br)c(Nc3ccccn3)n2)cc(OC)c1OC` [compound 22, Bromo-N^4-(pyridin-2-yl)-N^2-(3,4,5-trimethoxyphenyl) pyrimidine-2,4-diamine], the figure is greater than 6.70.
As for `CNC(=O)c1ccccc1Nc1nc(Nc2ccc3[nH]ccc3c2)ncc1Br` [compound 23, 2-(2-(1H-indol-5-ylamino)-5-bromopyrimidin-4-ylamino)-N-methylbenzamide], the figure is greater than 6.70; as for `COc1ccc(Nc2nc(Nc3cc(OC)c(OC)c(OC)c3)ncc2Cl)cn1` [compound 24, 5-Chloro-N^4-(6-methoxypyridin-3-yl)-N^2-(3,4,5-trimethoxyphenyl)pyrimidine-2,4-diamine], greater than 6.70.
With `COc1ccc(Nc2nc(Nc3cc(OC)c(OC)c(OC)c3)ncc2Br)cn1` [compound 25, 5-Bromohloro-N^4-(6-methoxypyridin-3-yl)-N^2-(3,4,5-trimethoxyphenyl)pyrimidine-2,4-diamine], the pIC50 is greater than 6.70.
The result for `COc1ccc(C)c(Nc2ncc(Br)c(Nc3ccccn3)n2)c1` [compound 26, 5-Bromo-N^2-(5-methoxy-2-methylphenyl)-N^4-(pyridin-2-yl) pyrimidine-2,4-diamine] reads 5.70 to 6.70.
The result for `COc1ccc(Nc2nc(Nc3ccc(N4CCOCC4)cc3OC)ncc2Cl)cn1` [compound 27, 5-Chloro-N^2-(2-methoxy-4-morpholinophenyl)-N^4-(6-methoxypyridin-3-yl)pyrimidine-2,4-diamine] reads less than 5.70.
